Experimental data: patent US20230310406A1 (priority 2020, published 2023)
Like-named read-outs stand apart in the source and are kept apart here.

Tests used:
serotonin receptor 1B = serotonin receptor 1B (Homo sapiens, UniProt P28222); test: in vitro antagonistic activity at serotonin receptor 1B; format: biochemical
histamine H1 receptor = histamine H1 receptor (Homo sapiens, UniProt P35367); test: in vitro antagonistic activity at histamine H1; format: biochemical
Mu (MOP) receptor = Mu (MOP) receptor (Homo sapiens, UniProt P35372); format: biochemical
Sequence of Mu (MOP) receptor (P35372 whole entry): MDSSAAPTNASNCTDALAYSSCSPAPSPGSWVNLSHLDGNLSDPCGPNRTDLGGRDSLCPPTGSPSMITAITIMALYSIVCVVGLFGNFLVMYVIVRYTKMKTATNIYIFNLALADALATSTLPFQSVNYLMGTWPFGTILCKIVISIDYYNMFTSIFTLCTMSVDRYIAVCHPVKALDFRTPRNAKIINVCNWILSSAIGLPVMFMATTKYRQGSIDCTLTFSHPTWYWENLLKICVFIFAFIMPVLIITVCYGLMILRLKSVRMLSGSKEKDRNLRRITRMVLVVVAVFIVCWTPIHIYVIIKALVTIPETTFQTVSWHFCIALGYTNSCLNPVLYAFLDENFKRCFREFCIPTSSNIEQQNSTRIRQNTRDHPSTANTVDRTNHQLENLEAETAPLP

[1] = target: T1, cholinergic muscarinic receptor 5 (Homo sapiens, UniProt P08912); test: in vitro antagonistic activity at muscarinic receptor 5; format: biochemical
T1 sequence (P08912 1-532): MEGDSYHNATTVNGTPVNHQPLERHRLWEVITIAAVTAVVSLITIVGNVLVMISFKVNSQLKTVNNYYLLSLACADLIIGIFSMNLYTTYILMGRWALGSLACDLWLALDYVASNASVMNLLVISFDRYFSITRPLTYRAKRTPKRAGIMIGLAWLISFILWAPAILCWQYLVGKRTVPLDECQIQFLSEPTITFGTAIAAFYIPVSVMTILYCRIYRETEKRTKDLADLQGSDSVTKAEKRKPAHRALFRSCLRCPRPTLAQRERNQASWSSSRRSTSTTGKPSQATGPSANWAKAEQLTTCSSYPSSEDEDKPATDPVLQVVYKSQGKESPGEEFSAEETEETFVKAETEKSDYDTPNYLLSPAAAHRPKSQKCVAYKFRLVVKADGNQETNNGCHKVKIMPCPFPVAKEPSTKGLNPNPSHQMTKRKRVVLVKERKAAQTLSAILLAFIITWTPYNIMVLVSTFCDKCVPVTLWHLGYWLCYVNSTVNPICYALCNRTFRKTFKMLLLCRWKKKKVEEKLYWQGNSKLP

[2] = target: cholinergic muscarinic receptor 3 (Homo sapiens, UniProt P20309); test: in vitro antagonistic activity at muscarinic receptor 3; format: biochemical
Sequence of cholinergic muscarinic receptor 3 (P20309 whole entry): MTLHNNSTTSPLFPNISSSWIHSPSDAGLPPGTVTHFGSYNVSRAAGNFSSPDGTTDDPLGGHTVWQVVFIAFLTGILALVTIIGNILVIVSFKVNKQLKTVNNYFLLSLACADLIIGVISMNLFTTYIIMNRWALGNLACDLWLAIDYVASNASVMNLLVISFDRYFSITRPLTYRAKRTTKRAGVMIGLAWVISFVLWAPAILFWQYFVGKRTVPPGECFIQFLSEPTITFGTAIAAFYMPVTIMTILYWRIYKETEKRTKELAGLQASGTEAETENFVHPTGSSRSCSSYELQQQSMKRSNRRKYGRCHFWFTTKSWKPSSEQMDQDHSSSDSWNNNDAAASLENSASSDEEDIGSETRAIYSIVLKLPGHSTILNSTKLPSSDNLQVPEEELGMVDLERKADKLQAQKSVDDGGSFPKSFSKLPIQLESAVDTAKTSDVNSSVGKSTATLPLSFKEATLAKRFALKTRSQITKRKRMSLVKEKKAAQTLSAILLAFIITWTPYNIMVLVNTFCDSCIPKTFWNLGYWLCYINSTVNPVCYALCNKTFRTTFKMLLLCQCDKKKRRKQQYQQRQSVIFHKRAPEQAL

[3] = target: T2, adrenergic receptor Alpha 2B (Homo sapiens, UniProt P18089); test: in vitro antagonistic activity at adrenergic Alpha 2B; format: biochemical
T2 sequence (P18089 1-450): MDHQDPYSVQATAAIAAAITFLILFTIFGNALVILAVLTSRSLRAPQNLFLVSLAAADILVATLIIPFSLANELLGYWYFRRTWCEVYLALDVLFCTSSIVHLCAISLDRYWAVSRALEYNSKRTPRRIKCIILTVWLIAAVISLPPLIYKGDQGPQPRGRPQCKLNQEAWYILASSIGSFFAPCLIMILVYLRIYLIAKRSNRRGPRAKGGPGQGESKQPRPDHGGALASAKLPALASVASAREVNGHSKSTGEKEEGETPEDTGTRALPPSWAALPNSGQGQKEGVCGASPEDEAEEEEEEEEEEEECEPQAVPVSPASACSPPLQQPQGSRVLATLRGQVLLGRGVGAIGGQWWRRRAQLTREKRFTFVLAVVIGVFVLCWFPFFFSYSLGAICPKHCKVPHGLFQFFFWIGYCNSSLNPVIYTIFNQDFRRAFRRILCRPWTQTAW

[4] = target: T3, adrenergic receptor Alpha 1B (Homo sapiens, UniProt P35368); test: in vitro antagonistic activity at adrenergic Alpha 1B; format: biochemical
T3 sequence (P35368 1-520): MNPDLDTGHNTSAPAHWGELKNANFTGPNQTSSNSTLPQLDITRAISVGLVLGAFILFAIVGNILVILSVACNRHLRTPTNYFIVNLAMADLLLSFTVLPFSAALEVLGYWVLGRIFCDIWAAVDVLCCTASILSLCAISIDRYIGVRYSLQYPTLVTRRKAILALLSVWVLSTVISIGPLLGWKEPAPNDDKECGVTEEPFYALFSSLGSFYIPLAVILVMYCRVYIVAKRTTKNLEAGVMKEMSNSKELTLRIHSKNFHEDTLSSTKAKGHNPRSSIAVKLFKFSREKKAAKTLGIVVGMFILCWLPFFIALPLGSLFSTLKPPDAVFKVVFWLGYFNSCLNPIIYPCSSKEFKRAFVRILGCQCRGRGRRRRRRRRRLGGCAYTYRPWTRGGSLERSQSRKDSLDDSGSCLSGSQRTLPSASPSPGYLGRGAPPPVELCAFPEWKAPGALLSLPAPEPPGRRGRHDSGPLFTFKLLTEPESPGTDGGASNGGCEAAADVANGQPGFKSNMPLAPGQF

ORL1 (NOP) receptor = ORL1 (NOP) receptor (Homo sapiens, UniProt P41146); test: in vitro pharmacology at ORL1 receptor; format: biochemical
Sequence of ORL1 (NOP) receptor (P41146 whole entry): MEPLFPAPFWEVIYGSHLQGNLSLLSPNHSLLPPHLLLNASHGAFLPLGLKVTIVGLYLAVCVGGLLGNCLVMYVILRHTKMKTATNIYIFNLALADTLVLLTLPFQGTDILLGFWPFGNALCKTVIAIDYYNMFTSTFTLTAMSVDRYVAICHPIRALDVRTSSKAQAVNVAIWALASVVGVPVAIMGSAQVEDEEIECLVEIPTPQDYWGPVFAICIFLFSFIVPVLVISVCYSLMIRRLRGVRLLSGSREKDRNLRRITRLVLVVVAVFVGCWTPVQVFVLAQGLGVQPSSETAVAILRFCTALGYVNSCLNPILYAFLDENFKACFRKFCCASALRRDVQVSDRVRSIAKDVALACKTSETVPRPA

[5] = target: T4, cholinergic muscarinic receptor 1 (Homo sapiens, UniProt P11229); test: in vitro antagonistic activity at muscarinic receptor 1; format: biochemical
T4 sequence (P11229 1-460): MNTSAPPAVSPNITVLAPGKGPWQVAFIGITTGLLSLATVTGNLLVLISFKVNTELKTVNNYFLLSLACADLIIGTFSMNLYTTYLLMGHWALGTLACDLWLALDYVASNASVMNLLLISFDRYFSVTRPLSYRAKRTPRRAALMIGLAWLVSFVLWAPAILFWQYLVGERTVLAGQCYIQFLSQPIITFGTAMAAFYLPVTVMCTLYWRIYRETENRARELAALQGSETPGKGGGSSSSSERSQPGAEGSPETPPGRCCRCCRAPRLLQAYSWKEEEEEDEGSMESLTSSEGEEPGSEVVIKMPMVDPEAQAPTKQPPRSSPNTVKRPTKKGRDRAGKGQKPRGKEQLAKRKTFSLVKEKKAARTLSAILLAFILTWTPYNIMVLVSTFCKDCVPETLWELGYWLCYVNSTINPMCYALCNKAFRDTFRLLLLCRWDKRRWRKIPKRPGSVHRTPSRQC

serotonin receptor 1A = target: T5, serotonin receptor 1A (Homo sapiens, UniProt P08908); test: in vitro antagonistic activity at serotonin receptor 1A; format: biochemical
T5 sequence (P08908 1-422): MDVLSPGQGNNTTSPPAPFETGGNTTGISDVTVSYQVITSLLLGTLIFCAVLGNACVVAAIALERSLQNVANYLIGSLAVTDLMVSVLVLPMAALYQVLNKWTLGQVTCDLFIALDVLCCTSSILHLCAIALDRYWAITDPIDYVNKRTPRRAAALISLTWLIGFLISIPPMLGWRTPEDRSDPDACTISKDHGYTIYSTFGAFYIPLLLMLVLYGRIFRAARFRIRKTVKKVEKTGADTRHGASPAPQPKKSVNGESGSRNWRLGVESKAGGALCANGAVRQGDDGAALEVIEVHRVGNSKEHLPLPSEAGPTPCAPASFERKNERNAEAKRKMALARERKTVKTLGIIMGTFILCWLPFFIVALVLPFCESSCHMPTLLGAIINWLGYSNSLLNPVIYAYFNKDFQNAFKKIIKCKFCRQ

[6] = target: T6, cholinergic muscarinic receptor 4 (Homo sapiens, UniProt P08173); test: in vitro antagonistic activity at muscarinic receptor 4; format: biochemical
T6 sequence (P08173 1-479): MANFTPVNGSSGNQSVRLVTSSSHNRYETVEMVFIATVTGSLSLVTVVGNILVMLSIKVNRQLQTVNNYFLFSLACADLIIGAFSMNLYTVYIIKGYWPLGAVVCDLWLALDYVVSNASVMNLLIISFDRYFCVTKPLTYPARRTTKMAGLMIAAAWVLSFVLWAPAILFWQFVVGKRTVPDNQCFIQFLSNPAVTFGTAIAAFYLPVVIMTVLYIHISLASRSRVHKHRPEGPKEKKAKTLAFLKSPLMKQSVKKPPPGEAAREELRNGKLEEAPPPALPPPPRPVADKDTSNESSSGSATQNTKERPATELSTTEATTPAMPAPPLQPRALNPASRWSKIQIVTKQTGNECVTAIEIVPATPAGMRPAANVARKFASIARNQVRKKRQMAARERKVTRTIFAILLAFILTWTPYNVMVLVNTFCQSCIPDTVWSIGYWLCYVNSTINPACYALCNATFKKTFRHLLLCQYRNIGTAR

[7] = target: T7, adrenergic receptor Alpha 2C (Homo sapiens, UniProt P18825); test: in vitro antagonistic activity at adrenergic Alpha 2C; format: biochemical
T7 sequence (P18825 1-462): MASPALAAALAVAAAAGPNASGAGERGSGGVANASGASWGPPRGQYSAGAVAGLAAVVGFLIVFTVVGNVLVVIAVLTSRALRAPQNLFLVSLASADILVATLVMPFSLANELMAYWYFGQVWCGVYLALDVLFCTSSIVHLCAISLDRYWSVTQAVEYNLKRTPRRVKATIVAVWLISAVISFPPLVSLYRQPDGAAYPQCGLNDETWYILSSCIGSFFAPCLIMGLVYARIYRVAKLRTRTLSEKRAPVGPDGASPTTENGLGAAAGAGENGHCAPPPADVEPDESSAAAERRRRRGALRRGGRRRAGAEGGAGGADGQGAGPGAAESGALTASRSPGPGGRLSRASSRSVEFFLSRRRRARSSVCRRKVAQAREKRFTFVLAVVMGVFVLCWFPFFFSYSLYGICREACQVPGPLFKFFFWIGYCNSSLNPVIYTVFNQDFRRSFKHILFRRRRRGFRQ

Kappa (KOP) receptor = Kappa (KOP) receptor (Homo sapiens, UniProt P41145); format: biochemical
Sequence of Kappa (KOP) receptor (P41145 whole entry): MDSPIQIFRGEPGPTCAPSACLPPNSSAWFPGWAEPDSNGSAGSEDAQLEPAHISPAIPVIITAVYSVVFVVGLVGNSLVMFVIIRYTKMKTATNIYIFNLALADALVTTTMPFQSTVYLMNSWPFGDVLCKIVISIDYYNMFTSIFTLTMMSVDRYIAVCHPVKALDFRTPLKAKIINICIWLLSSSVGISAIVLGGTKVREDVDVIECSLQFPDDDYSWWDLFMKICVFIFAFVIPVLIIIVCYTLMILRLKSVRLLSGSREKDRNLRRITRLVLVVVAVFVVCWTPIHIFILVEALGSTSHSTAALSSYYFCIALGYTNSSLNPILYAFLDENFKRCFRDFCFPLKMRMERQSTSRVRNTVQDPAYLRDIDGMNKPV

dopamine D4 receptor = target: T8, dopamine D4 receptor (Homo sapiens, UniProt P21917); test: in vitro antagonistic activity at dopamine D4; format: biochemical
T8 sequence (P21917 1-419): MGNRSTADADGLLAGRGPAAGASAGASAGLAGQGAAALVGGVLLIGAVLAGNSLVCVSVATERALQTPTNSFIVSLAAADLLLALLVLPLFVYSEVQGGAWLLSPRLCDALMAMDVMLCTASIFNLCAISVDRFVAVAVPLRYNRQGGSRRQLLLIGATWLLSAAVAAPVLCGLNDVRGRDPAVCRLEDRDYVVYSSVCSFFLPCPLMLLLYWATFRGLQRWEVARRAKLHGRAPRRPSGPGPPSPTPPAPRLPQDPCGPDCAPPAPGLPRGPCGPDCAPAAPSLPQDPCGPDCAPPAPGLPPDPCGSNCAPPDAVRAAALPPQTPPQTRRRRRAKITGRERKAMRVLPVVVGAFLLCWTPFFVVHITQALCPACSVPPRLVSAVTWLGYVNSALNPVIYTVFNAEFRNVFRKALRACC

Sigma opiate sites = test: in vitro affinity at sigma opiate sites; format: binding

Sequence of serotonin receptor 1B (P28222 whole entry): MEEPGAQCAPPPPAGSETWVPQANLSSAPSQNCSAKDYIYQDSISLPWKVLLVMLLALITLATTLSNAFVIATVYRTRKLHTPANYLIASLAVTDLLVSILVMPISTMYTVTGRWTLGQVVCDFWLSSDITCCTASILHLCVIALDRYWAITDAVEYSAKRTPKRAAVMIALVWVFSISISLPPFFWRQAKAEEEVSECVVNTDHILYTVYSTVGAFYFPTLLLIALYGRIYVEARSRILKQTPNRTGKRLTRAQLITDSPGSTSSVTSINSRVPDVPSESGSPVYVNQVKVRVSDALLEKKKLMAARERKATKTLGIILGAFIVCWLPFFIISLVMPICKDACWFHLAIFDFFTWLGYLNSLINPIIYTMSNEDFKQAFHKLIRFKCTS
Sequence of histamine H1 receptor (P35367 whole entry, species assumed): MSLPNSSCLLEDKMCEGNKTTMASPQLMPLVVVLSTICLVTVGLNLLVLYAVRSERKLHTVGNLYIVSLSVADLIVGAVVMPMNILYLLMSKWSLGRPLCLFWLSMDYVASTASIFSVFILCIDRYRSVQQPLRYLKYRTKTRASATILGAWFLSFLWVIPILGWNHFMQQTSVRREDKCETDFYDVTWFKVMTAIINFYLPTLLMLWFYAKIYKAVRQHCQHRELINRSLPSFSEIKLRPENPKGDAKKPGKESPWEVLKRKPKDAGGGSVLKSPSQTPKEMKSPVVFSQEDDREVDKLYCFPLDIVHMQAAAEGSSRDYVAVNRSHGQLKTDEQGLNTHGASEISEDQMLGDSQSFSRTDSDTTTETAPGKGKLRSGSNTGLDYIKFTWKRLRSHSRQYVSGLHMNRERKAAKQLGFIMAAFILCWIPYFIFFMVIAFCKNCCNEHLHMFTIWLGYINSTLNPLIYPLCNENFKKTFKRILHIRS

Row | SMILES | activity at serotonin receptor 1B (serotonin receptor 1B) | activity at histamine H1 receptor (histamine H1 receptor) | Receptor Mu (MOP): mode of action (Mu (MOP) receptor) | activity at cholinergic muscarinic receptor 5 [1] | activity at cholinergic muscarinic receptor 3 [2] | activity at adrenergic receptor Alpha 2B [3] | activity at adrenergic receptor Alpha 1B [4] | Receptor ORL1 (NOP): mode of action (ORL1 (NOP) receptor) | Receptor ORL1 (NOP): mode of action (ORL1 (NOP) receptor; listed as compound 1) | activity at cholinergic muscarinic receptor 1 [5] | activity at serotonin receptor 1A (serotonin receptor 1A) | activity at cholinergic muscarinic receptor 4 [6] | activity at adrenergic receptor Alpha 2C [7] | Receptor Kappa (KOP): mode of action (Kappa (KOP) receptor) | activity at dopamine D4 receptor (dopamine D4 receptor) | Receptor Sigma: affinity (Sigma opiate sites; listed as compound 1) | Receptor Sigma: affinity (Sigma opiate sites)
1 | CCC(=O)NC1CC(C)N(CCc2ccccc2)CC1C (stereo not drawn) [Compound 1, 1-(2-phenylethyl)2,5-dimethyl-4-propionilaminopiperidine] | antagonistic activity | antagonistic activity | partial agonist | antagonistic activity | antagonistic activity | antagonistic activity | antagonistic activity | Antagonist | antagonist | antagonistic activity | antagonistic activity | antagonistic activity | antagonistic activity | Antagonist | antagonistic activity | activity | –
2 | C=CCN1CC[C@]23c4c5ccc(O)c4O[C@H]2C(=O)CC[C@@]3(O)[C@H]1C5 [Naloxone] | – | – | – | – | – | – | – | – | – | – | – | – | – | – | – | – | Weak
3 | O=C1CC[C@@]2(O)[C@H]3Cc4ccc(O)c5c4[C@@]2(CCN3CC2CC2)[C@H]1O5 [Naltrexone] | – | – | – | – | – | – | – | – | – | – | – | – | – | – | – | – | Weak
